Legend:
ECHCG = experiment: Herbicidal pre-emergence action 2b (doubly sown, 1280 g/ha); assay type: in vivo, Echinochloa crus-galli; settings: doubly sown pots, dosage 1280 g/ha, visual scoring after about 3 weeks
Method in brief: (§1)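 Visual % scores against untreated plants (0% = like control, 100% = dead) were taken roughly 3 weeks after treatment in the greenhouse. Compounds, as WP or EC with 0.5% additive, were applied in 600 l/ha water onto covering soil over seeds of paired mono-/dicot weeds in sandy loam.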

VERPE [1] = experiment: Herbicidal pre-emergence action 2a (greenhouse pots, visual scoring); assay type: in vivo, Veronica persica; settings: dosage 320 g/ha, visual scoring after about 3 weeks vs untreated controls
Method in brief: (§2)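 Seeds were sown in pots, covered with soil, and the compound (WP or EC formulation) was sprayed onto the soil surface as an aqueous suspension or emulsion with 0.5% additive at 600 l/ha water, at 320 g/ha and/or 80 g/ha. Greenhouse growth followed for about 3 weeks, then visual scoring against untreated controls.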

VIOTR = experiment: Herbicidal post-emergence action 1a (greenhouse pots, visual rating); assay type: in vivo, Viola tricolor; settings: dosage 320 g/ha, visual rating about 3 weeks after treatment
Method in brief: (§3)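 Visual scoring versus untreated plants (100% = plants dead, 0% = as control) followed roughly 3 weeks in the greenhouse after treatment. Plants grown in sandy loam pots had been sprayed on green parts at the one-leaf stage, 2–3 weeks post-sowing, with aqueous WP/EC preparations containing 0.5% additive, 600 l/ha, at 320 and/or 80 g/ha.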

AMARE [2] = experiment: as above; assay type: in vivo, Amaranthus retroflexus; settings: visual rating about 3 weeks after treatment
Method in brief: as §3

AMARE [3] = experiment: Herbicidal pre-emergence action 2a (greenhouse pots, visual scoring); assay type: in vivo, Amaranthus retroflexus; settings: dosage 320 g/ha, visual scoring after about 3 weeks vs untreated controls
Method in brief: as §2

POAAN [4] = experiment: Herbicidal pre-emergence action 2b (doubly sown, 1280 g/ha); assay type: in vivo, Poa annua; settings: doubly sown pots, dosage 1280 g/ha, visual scoring after about 3 weeks
Method in brief: as §1

STEME [5] = experiment: Herbicidal post-emergence action 1b (twin sowing, 1280 g/ha); assay type: in vivo, Stellaria media; settings: dosage 1280 g/ha, visual rating about 3 weeks after treatment
Method in brief: (§4)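 Compounds formulated as WP or EC were applied with 0.5% additive in 600 L/ha water onto one-leaf-stage weeds, each pot sown with one monocot and one dicot species in sandy loam. After roughly 3 weeks in the greenhouse, visual percent activity was scored against untreated plants.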

POLCO [6] = experiment: Herbicidal post-emergence action 1a (greenhouse pots, visual rating); assay type: in vivo, Polygonum convolvulus; settings: visual rating about 3 weeks after treatment
Method in brief: as §3

STEME [7] = experiment: Herbicidal pre-emergence action 2a (greenhouse pots, visual scoring); assay type: in vivo, Stellaria media; settings: dosage 320 g/ha, visual scoring after about 3 weeks vs untreated controls
Source text: [table] a) Seeds of monocotyledonous and dicotyledonous weed plants and crop plants are placed in plastic or organic plant pots and covered with soil. The compounds of the invention, formulated in the form of wettable powders (WP) or as emulsion concentrates (EC), are then applied onto the surface of the covering soil as aqueous suspension or emulsion with addition of 0.5% additive at a water application rate of 600 1/ha (converted). After the treatment, the pots are placed in a greenhouse and kept under good growth conditions for the trial plants. After about 3 weeks, the effect of the preparations is scored visually in comparison with untreated controls as percentages. For example, 100% activity=the plants have died, 0% activity=like control plants. Tables B1 to B15 below show the effects of selected compounds of the general formula (I) according to Tables 1 and 2 on various harmful plants and an application rate corresponding to 320 g/ha and/or 80 g/ha, which were obtained by the experimental procedure mentioned above.

ALOMY [8] = experiment: Herbicidal post-emergence action 1a (greenhouse pots, visual rating); assay type: in vivo, Alopecurus myosuroides; settings: Dosage 320 g/ha; rated visually about 3 weeks after treatment; 100% = plants have died, 0% = like control plants
Method in brief: as §3

POLCO [9] = experiment: Herbicidal pre-emergence action 2a (greenhouse pots, visual scoring); assay type: in vivo, Polygonum convolvulus; settings: dosage 320 g/ha, visual scoring after about 3 weeks vs untreated controls
Method in brief: as §2

MATIN [10] = experiment: Herbicidal post-emergence action 1a (greenhouse pots, visual rating); assay type: in vivo, Matricaria inodora; settings: visual rating about 3 weeks after treatment
Method in brief: as §3

STEME [11] = experiment: as above; assay type: in vivo, Stellaria media; settings: Dosage 320 g/ha; rated visually about 3 weeks after treatment; 100% = plants have died, 0% = like control plants
Experimental: [table] a) Seeds of monocotyledonous and dicotyledonous weeds and crop plants are placed in sandy loam in plastic or organic plant pots, covered with soil and cultivated in a greenhouse under controlled growth conditions. 2 to 3 weeks after sowing, the test plants are treated at the one-leaf stage. The compounds of the invention, formulated in the form of wettable powders (WP) or as emulsion concentrates (EC), are then sprayed onto the green parts of the plants as aqueous suspension or emulsion with addition of 0.5% additive at a water application rate of 600 1/ha (converted). After the test plants have been kept in the greenhouse under optimum growth conditions for about 3 weeks, the activity of the preparations is rated visually in comparison to untreated controls. For example, 100% activity=the plants have died, 0% activity=like control plants. Tables A1 to A15 below show the effects of selected compounds of the general formula (I) according to Tables 1 and 2 on various harmful plants and an application rate corresponding to 320 g/ha and/or 80 g/ha, which were obtained by the experimental procedure mentioned above.

LOLRI [12] = experiment: Herbicidal pre-emergence action 2a (greenhouse pots, visual scoring); assay type: in vivo, Lolium rigidum; settings: dosage 320 g/ha, visual scoring after about 3 weeks vs untreated controls
Method in brief: as §2

PHBPU = experiment: Herbicidal post-emergence action 1a (greenhouse pots, visual rating); assay type: in vivo, Pharbitis purpurea; settings: visual rating about 3 weeks after treatment
Method in brief: as §3

STEME [13] = experiment: Herbicidal pre-emergence action 2b (doubly sown, 1280 g/ha); assay type: in vivo, Stellaria media; settings: doubly sown pots, dosage 1280 g/ha, visual scoring after about 3 weeks
Method in brief: as §1

AMARE [14] = experiment: as above; assay type: in vivo, Amaranthus retroflexus; settings: doubly sown pots, dosage 1280 g/ha, visual scoring after about 3 weeks
Method in brief: as §1

MATIN [15] = experiment: Herbicidal pre-emergence action 2a (greenhouse pots, visual scoring); assay type: in vivo, Matricaria inodora; settings: dosage 320 g/ha, visual scoring after about 3 weeks vs untreated controls
Method in brief: as §2

VERPE [16] = experiment: Herbicidal post-emergence action 1a (greenhouse pots, visual rating); assay type: in vivo, Veronica persica; settings: dosage 320 g/ha, visual rating about 3 weeks after treatment
Method in brief: as §3

MATIN [17] = experiment: Herbicidal post-emergence action 1b (twin sowing, 1280 g/ha); assay type: in vivo, Matricaria inodora; settings: dosage 1280 g/ha, visual rating about 3 weeks after treatment
Method in brief: as §4

MATIN [18] = experiment: Herbicidal pre-emergence action 2b (doubly sown, 1280 g/ha); assay type: in vivo, Matricaria inodora; settings: doubly sown pots, dosage 1280 g/ha, visual scoring after about 3 weeks
Method in brief: as §1

ALOMY [19] = experiment: Herbicidal pre-emergence action 2a (greenhouse pots, visual scoring); assay type: in vivo, Alopecurus myosuroides; settings: dosage 320 g/ha, visual scoring after about 3 weeks
Method in brief: as §2

DIGSA = experiment: as above; assay type: in vivo, Digitaria sanguinalis; settings: dosage 320 g/ha, visual scoring after about 3 weeks
Method in brief: as §2

LOLRI [20] = experiment: Herbicidal post-emergence action 1a (greenhouse pots, visual rating); assay type: in vivo, Lolium rigidum; settings: Dosage 320 g/ha; rated visually about 3 weeks after treatment; 100% = plants have died, 0% = like control plants
Method in brief: as §3

POAAN [21] = experiment: Herbicidal post-emergence action 1b (twin sowing, 1280 g/ha); assay type: in vivo, Poa annua; settings: dosage 1280 g/ha, visual rating about 3 weeks after treatment
Method in brief: as §4

O=C(O)COc1nn(-c2cnccn2)c(-c2cccc(F)c2)c1Br [Example I-04]
80%: Post-emergence action against VIOTR in % (VIOTR) | Post-emergence action against POLCO in % (POLCO [6]; dosage 80 g/ha) | Post-emergence action against MATIN in % (MATIN [10]; dosage 80 g/ha) | Post-emergence action against STEME in % (STEME [11]) | Post-emergence action against PHBPU in % (PHBPU; dosage 80 g/ha) | Post-emergence action against PHBPU in % (PHBPU; dosage 320 g/ha) | Post-emergence action against VERPE in % (VERPE [16]) | Pre-emergence action against ALOMY in % (ALOMY [19]) | Post-emergence action against LOLRI in % (LOLRI [20])
100%: Pre-emergence action at 1280 g/ha against ECHCG in % (ECHCG) | Pre-emergence action against AMARE in % (AMARE [3]) | Pre-emergence action at 1280 g/ha against POAAN in % (POAAN [4]) | Post-emergence action at 1280 g/ha against STEME in % (STEME [5]) | Pre-emergence action at 1280 g/ha against STEME in % (STEME [13]) | Pre-emergence action at 1280 g/ha against AMARE in % (AMARE [14]) | Pre-emergence action at 1280 g/ha against MATIN in % (MATIN [18])
90%: Pre-emergence action against VERPE in % (VERPE [1]) | Post-emergence action against AMARE in % (AMARE [2]; dosage 80 g/ha) | Post-emergence action against AMARE in % (AMARE [2]; dosage 320 g/ha) | Post-emergence action against POLCO in % (POLCO [6]; dosage 320 g/ha) | Pre-emergence action against STEME in % (STEME [7]) | Post-emergence action against ALOMY in % (ALOMY [8]) | Pre-emergence action against POLCO in % (POLCO [9]) | Post-emergence action against MATIN in % (MATIN [10]; dosage 320 g/ha) | Pre-emergence action against LOLRI in % (LOLRI [12]) | Pre-emergence action against MATIN in % (MATIN [15]) | Post-emergence action at 1280 g/ha against MATIN in % (MATIN [17]) | Pre-emergence action against DIGSA in % (DIGSA) | Post-emergence action at 1280 g/ha against POAAN in % (POAAN [21])

Source: US20230167088A1, “1-PYRAZINYLPYRAZOLYL-3-OXYALKYL ACIDS AND THEIR DERIVATIVES, AND THEIR USE FOR CONTROL OF UNDESIRED PLANT GROWTH” (BAYER AKTIENGESELLSCHAFT, priority 2020, published 2023)
